Assay results published in US20240012012A1, “BIOMARKER AND TREATMENT FOR VASCULAR COGNITIVE IMPAIRMENT AND RELATED CONDITIONS” (priority 2020, published 2024).

Experiments:
[1] = system: neurofilament light protein (NFL); experiment: Serum NFL quantification (Simoa NF-Light), murine heart failure model (Example 1); type: in vivo, mouse; details: 50 μg/kg/day and 500 μg/kg/day, relative to HF-saline
Description: Male C57Bl/6J adult mice (Harlan, 8-10 weeks old) were randomly assigned to either the sham control (n=12) or heart failure (HF) group (n=44). All mice prior to surgery were weighed and anesthetized. For the HF mice, myocardial infarction (MI) was induced by ligation of the left coronary artery (LCA). Under anesthesia (2.5% isoflurane in a mixture of air and 02) a thoracotomy was performed at the fourth left intercostal space and the LCA permanently ligated to induce a myocardial infarction (MI). Occlusion of the LCA was confirmed by observing blanching, a slight change in color of the anterior wall of the left ventricle downstream of the ligature. Sham mice underwent the same procedure with the exception of ligating the LCA.
Following 5 weeks post MI surgery, mice were treated for […] with daily subcutaneous injections as follows:
NFL Quantification: Immediately following the final NOR test, mice were sacrificed and serum samples were obtained for NFL quantification using the Simoa™ NF-Light® kit (Quanterix Cat #103186, Lot #501953), which quantifies neurofilament light (NFL). Assay samples were diluted 1:4 and calibrators were undiluted. As samples and calibrators were run in duplicate and analyzed using the HD-X Analyzer software package.

[2] = system: neurofilament light protein (NFL); experiment: Serum NFL levels in patients undergoing coronary artery bypass grafting (CABG); type: in vivo, human; details: 200 μg/kg/day s.c. for 21 days, vs saline vehicle
Source text: It is well documented that patients undergoing coronary artery bypass grafting (CABG) tend to experience post-surgical cognitive dysfunction. The present study elucidates the response in serum NFL levels to CABG and how that response may be modulated by Ang-(1-7) treatment. Potential CABG participants underwent a screening visit between 2 and 15 days prior to CABG surgery, including a full medical history and physical examination to rule out dementia (Mini-Mental State Exam score less than 25), and depression (Geriatric Depression Scale score greater than 10). Between 1 and 15 days prior to CABG surgery, participants underwent neuropsychological evaluation including memory testing and blood draws for clinical pathology assessment, NFL biomarker assessment. […] At 21 days post-surgery, additional blood samples were obtained, and serum NFL levels were measured.
The serum NFL concentration was measure in six subjects prior to CABG surgery and in 18 age-matched control subjects. […] Two subjects were administered saline vehicle control. […] Following surgery, serum NFL levels increased about four-fold in the patients treated with saline vehicle compared to pre-surgery level (p=0.0002).

TNFα = experiment: Plasma cytokines, MILLIPLEX MAP Mouse High Sensitivity Multiplex Immunoassay; type: in vivo; details: 50 μg/kg/day; values at or below assay threshold represented as 3.12
Description: Mice were assigned randomly to the following treatment groups: Control-Saline (sham MI surgery, treated with saline), HF-treated (HF-PNA5, or HF-Ang-(1-7) with either 50 μg/kg/day, or 500 μg/kg/day), or HF-saline. Mice recovered for 5 weeks following MI before receiving 24 days of daily subcutaneous drug treatment. Within the last 3 days of injections, animals underwent Novel Object Recognition (NOR) testing (FIG. 6). […]
Cytokine concentrations were measured in the brain lysates and plasma samples by multiplex immunoassay using a MAGPIX Multiplexing Instrument and accompanying Multiplex Analyst software (MILLIPLEX MAP Mouse Cytokine/Chemokine Magnetic Bead Panel-Immunology Multiplex Assay; MCYTOMAG-70 K; Millipore Sigma, Burlington, Massachusetts). […] All samples were run in duplicate, and the results were analyzed using ANOVA and relevant post using GraphPad Prism9. To create a composite cytokine score, we calculated the z-scores for IL-2, IL-13, and IL-17 brain cytokines. […] The z-score was calculated for each cytokine using the following equation: […]

brain cytokines = experiment: Whole brain lysate cytokines, MILLIPLEX MAP Mouse High Sensitivity Multiplex Immunoassay; type: in vivo
Description: Mice were assigned randomly to the following treatment groups: Control-Saline (sham MI surgery, treated with saline), HF-treated (HF-PNA5, or HF-Ang-(1-7) with either 50 μg/kg/day, or 500 μg/kg/day), or HF-saline. Mice recovered for 5 weeks following MI before receiving 24 days of daily subcutaneous drug treatment. Within the last 3 days of injections, animals underwent Novel Object Recognition (NOR) testing (FIG. 6). Animal treatment groups were as listed: heart failure (HF)-saline treated n=15, (HF-Saline), Sham surgery-saline treated n=15 (Control-Saline), HF-Ang-(1-7) at 500 μg/kilogram body weight/day for 24 days (HF-A500) n=15, HF-Ang-(1-7) at 50 μg/kg body weight/day for 24 days (HF-A50) n=15, HF-PNA5 at 500 μg/kilogram body weight/day (HF-P500) n=15, HF-PNA5 at 50 μg/kilogram body weight/day (HF-P50) n=15. Following MI, up to 7 mice died within a group resulting in varying number of mice per group that were available to undergo treatment, NOR testing, and provide serum samples.
Mice were anesthetized with isoflurane and rapidly decapitated. Brains were separated from the skull and quickly cut into two hemispheres. The halves of the brain were then rapidly frozen in corning tubes in liquid nitrogen and stored at −80° C. One half of each brain was lysed using 1 mL RIPA buffer (1% Triton X-100, 0.1% SDS, 1×PBS) with protease (protease inhibitor cocktail 100× [Sigma P8340]) and phosphatase inhibitors (phosphatase inhibitor cocktail 100× [Sigma P5726]). Tissue was then sonicated using an ultrasonic cell disruptor at 30% 40% amplitude for 1 min. Samples were returned to ice in between sonication to prevent the tissue from warming. Samples were then centrifuged at 4° C. or 15 min at 13,000×g. The supernatant was collected and stored at −80° C. Total protein was measured in the range of […]. Brain lysates were used for multiplex immunoassays.
Cytokine concentrations were measured in the brain lysates and plasma samples by multiplex immunoassay using a MAGPIX Multiplexing Instrument and accompanying Multiplex Analyst software (MILLIPLEX MAP Mouse Cytokine/Chemokine Magnetic Bead Panel-Immunology Multiplex Assay; MCYTOMAG-70 K; Millipore Sigma, Burlington, Massachusetts). Simultaneous measurements of granulocyte colony-stimulating factor (GCSF), granulocyte-macrophage colony-stimulating factor, interferon, interleukin (IL)-1a, IL-1B, IL-2, IL-4, IL-5, IL-6, IL-7, IL-9, IL-10, IL-12 (p40), IL-12 (p70), IL-13, IL-15, IL-17, interferon-induced protein 10, chemokine (C-X-C motif) (CXC) ligand 1 (KC), chemokine (C-C motif) ligand (CCL) 2 (monocyte chemoattractant protein-1), CCL3 [macrophage inflammatory protein (MIP) 1a], CCL4 (MIP1b), CXC ligand 2 (MIP2), CCL5 [RANTES (regulated on activation normal T cell expressed and secreted)], and tumor necrosis factor-alpha (TNF-α) were captured. All samples were run in duplicate, and the results were analyzed using ANOVA and relevant post using GraphPad Prism9. To create a composite cytokine score, we calculated the z-scores for IL-2, IL-13, and IL-17 brain cytokines. Z-scores were then added to create a composite cytokine score. The z-score was calculated for each cytokine using the following equation: […]

Substance: DRVYIHP [Ang-(1-7), Asp-Arg-Val-Tyr-Ile-His-Pro, Mas receptor agonist]
- HF-induced increase in serum NFL levels [1]: reversed
- post-surgical increase in serum NFL [2]: significantly reduced that post-surgical increase
- plasma TNFα, mean (TNFα): 3.12 pg/mL
- brain IL-1α, mean ± SE (brain cytokines; 50 ug/kg): 95.6 ± 8.4 pg/mL
- brain IL-10 (row head as printed; title says IP-10), mean ± SE (brain cytokines; 50 ug/kg): 42.2 ± 3.2 pg/mL
- brain IL-17, mean ± SE (brain cytokines; 50 ug/kg): 44.1 ± 2.8 pg/mL
- brain IL-1α, mean ± SE (brain cytokines; 500 ug/kg): 95.6 ± 5.5 pg/mL
- brain IL-2, mean ± SE (brain cytokines; 500 ug/kg): 50.9 ± 1.9 pg/mL
- brain IL-5, mean ± SE (brain cytokines; 500 ug/kg): 53.2 ± 2.7 pg/mL
- brain IL-10 (row head as printed; title says IP-10), mean ± SE (brain cytokines; 500 ug/kg): 43.8 ± 4.2 pg/mL
- brain IL-17, mean ± SE (brain cytokines; 500 ug/kg): 42.0 ± 1.1 pg/mL
- brain lysate levels of IL-1α, IL-2, IL-5, IL-13, and IL-17 compared to HF-Saline (brain cytokines; A50 or A500 (50 or 500 ug/kg)): significantly increased
